Results from the supplement of paper PMC4862054.

How the values were obtained:
Assay in all cases: normalised response (% of control), CellTiter-Glo; higher = more viable cells (100 = DMSO, 0 = benzethonium chloride kill control)
Details in all cases: incubation time: 72 h
[1] = system: CAL-85-1
Procedure, shortened: (§1)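 For each plate, 0.1 % DMSO was set to 100 and a positive kill control to 0. Breast cancer cell lines (20 µl suspension) were seeded into 384-well plates already holding compound at 5 concentrations in 10-fold steps over a 10,000-fold range chosen per compound, and incubated for 72 h. CellTox Green fluorescence at 485/520 nm was read before CellTiter-Glo luminescence, which followed 10 min at room temperature. Each value is the normalised signal at one concentration.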

[2] = system: DU-4475
Procedure, shortened: as §1

[3] = system: CAL-148
Procedure, shortened: as §1

[4] = system: BT-474
Procedure, shortened: as §1

[5] = system: MFM-223
Procedure, shortened: as §1

[6] = system: CAL-51
Procedure, shortened: as §1

[7] = system: BT-549
Procedure, shortened: as §1

[8] = system: HCC1937
Procedure, shortened: as §1

[9] = system: MDA-MB-453
Procedure, shortened: as §1

[10] = system: CAL-120
Procedure, shortened: as §1

[11] = system: MDA-MB-436
Procedure, shortened: as §1

[12] = system: Hs578T
Procedure, shortened: as §1

`OC[C@H]1O[C@@H](n2cnc3c2N=CNC[C@H]3O)C[C@@H]1O` [Pentostatin] (1000 nM) gave a normalised response [1] of 100%, a normalised response [2] of 98% and a normalised response [3] of 94.4%. It also gave a normalised response [4] of 93.9%, a normalised response [5] of 103% and a normalised response [6] of 92.4%. For the same compound, the normalised response [7] was 95.7%, the normalised response [8] was 100% and the normalised response [9] was 97.8%. For the same compound, the normalised response [10] was 95.6%, the normalised response [11] was 102% and the normalised response [12] was 105%.

Work on `Cc1c2oc3c(C)ccc(C(=O)N[C@@H]4C(=O)N[C@H](C(C)C)C(=O)N5CCC[C@H]5C(=O)N(C)CC(=O)N(C)[C@@H](C(C)C)C(=O)O[C@@H]4C)c3nc-2c(C(=O)N[C@@H]2C(=O)N[C@H](C(C)C)C(=O)N3CCC[C@H]3C(=O)N(C)CC(=O)N(C)[C@@H](C(C)C)C(=O)O[C@@H]2C)c(N)c1=O` [Dactinomycin] (100 nM) yielded a normalised response [1] of 6.91%, a normalised response [2] of 0.24% and a normalised response [3] of 2.05%. It also gave a normalised response [4] of 6.79%, a normalised response [5] of 26.6% and a normalised response [6] of 2.69%. For the same compound, the normalised response [7] was 6.05%, the normalised response [8] was 18.9% and the normalised response [9] was 6.8%. The normalised response [10] was 19.8%, the normalised response [11] was 17% and the normalised response [12] was 7.79%.

`Clc1ccc(C(c2ccccc2Cl)C(Cl)Cl)cc1` (stereo unspecified) [Mitotane] (1000 nM) was tested, and the normalised response [1] was 101%, the normalised response [2] was 95.3% and the normalised response [3] was 95.7%. For the same compound, the normalised response [4] was 92%, the normalised response [5] was 97.4% and the normalised response [6] was 98.3%. The normalised response [7] was 100%, the normalised response [8] was 99.6% and the normalised response [9] was 92.5%. The normalised response [10] was 97.7%, the normalised response [11] was 98.2% and the normalised response [12] was 104%.

`CS(=O)(=O)c1ccc(C(=O)Nc2ccc(Cl)c(-c3ccccn3)c2)c(Cl)c1` [Vismodegib] (1000 nM) gave a normalised response [1] of 103%, a normalised response [2] of 98.9% and a normalised response [3] of 98.8%. It also gave a normalised response [4] of 90.3%, a normalised response [5] of 95.2% and a normalised response [6] of 105%. For the same compound, the normalised response [7] was 101%, the normalised response [8] was 95.5% and the normalised response [9] was 89.6%. It also gave a normalised response [10] of 90.9%, a normalised response [11] of 93.3% and a normalised response [12] of 101%.

Work on `Cc1ccc(F)c(NC(=O)Nc2ccc(-c3cccc4[nH]nc(N)c34)cc2)c1` [Linifanib] (100 nM) yielded a normalised response [1] of 100%, a normalised response [2] of 98.7% and a normalised response [3] of 109%. The normalised response [4] was 106%, the normalised response [5] was 110% and the normalised response [6] was 75.2%. It also gave a normalised response [7] of 103%, a normalised response [8] of 102% and a normalised response [9] of 112%. The normalised response [10] was 114%, the normalised response [11] was 112% and the normalised response [12] was 98%.

`CN1CC[C@H](c2c(O)cc(O)c3c(=O)cc(-c4ccccc4Cl)oc23)[C@H](O)C1` [Alvocidib] (1000 nM) was tested, and the normalised response [1] was 8.63%, the normalised response [2] was 10.1% and the normalised response [3] was 26.1%. The normalised response [4] was 20%, the normalised response [5] was 14% and the normalised response [6] was 9.5%. For the same compound, the normalised response [7] was 5.76%, the normalised response [8] was 29.1% and the normalised response [9] was 28%. The normalised response [10] was 35.2%, the normalised response [11] was 14.2% and the normalised response [12] was 10.1%.

Work on `N#CC[C@H](C1CCCC1)n1cc(-c2ncnc3[nH]ccc23)cn1` [Ruxolitinib] (1000 nM) yielded a normalised response [1] of 95.8%, a normalised response [2] of 99.6% and a normalised response [3] of 99.9%. It also gave a normalised response [4] of 90.2%, a normalised response [5] of 91% and a normalised response [6] of 121%. The normalised response [7] was 96.3%, the normalised response [8] was 103% and the normalised response [9] was 84.3%. It also gave a normalised response [10] of 89.4%, a normalised response [11] of 101% and a normalised response [12] of 105%.

With `COc1cccc2c1C(=O)c1c(O)c3c(c(O)c1C2=O)C[C@@](O)(C(=O)CO)C[C@@H]3O[C@H]1C[C@H](N)[C@H](O)[C@H](C)O1` [Doxorubicin] (100 nM) the normalised response [1] was 103%, the normalised response [2] was 80.7% and the normalised response [3] was 82.7%. The normalised response [4] was 82.9%, the normalised response [5] was 115% and the normalised response [6] was 39%. The normalised response [7] was 78.3%, the normalised response [8] was 107% and the normalised response [9] was 117%. The normalised response [10] was 98.6%, the normalised response [11] was 85.4% and the normalised response [12] was 98.7%.

With `C[C@]1(c2nc3c(C(N)=O)cccc3[nH]2)CCCN1` [Veliparib] (1000 nM) the normalised response [1] was 115%, the normalised response [2] was 98.6% and the normalised response [3] was 96.2%. It also gave a normalised response [4] of 93.8%, a normalised response [5] of 107% and a normalised response [6] of 72.6%. For the same compound, the normalised response [7] was 103%, the normalised response [8] was 101% and the normalised response [9] was 109%. For the same compound, the normalised response [10] was 97%, the normalised response [11] was 95.4% and the normalised response [12] was 105%.

`C=CCNC1=C2C[C@@H](C)C[C@H](OC)[C@H](O)[C@@H](C)/C=C(\C)[C@H](OC(N)=O)[C@@H](OC)/C=C\C=C(/C)C(=O)NC(=CC1=O)C2=O` [Tanespimycin] (1000 nM) gave a normalised response [1] of 27.9%, a normalised response [2] of 0.04% and a normalised response [3] of 24.1%. It also gave a normalised response [4] of 21.1%, a normalised response [5] of 39.2% and a normalised response [6] of 26%. For the same compound, the normalised response [7] was 33.4%, the normalised response [8] was 29% and the normalised response [9] was 28.9%. For the same compound, the normalised response [10] was 51.8%, the normalised response [11] was 43.3% and the normalised response [12] was 38.2%.

Compound `C=CC[C@@H]1/C=C(\C)C[C@H](C)C[C@H](OC)[C@H]2O[C@@](O)(C(=O)C(=O)N3CCCC[C@H]3C(=O)O[C@H](/C(C)=C/[C@@H]3CC[C@@H](O)[C@H](OC)C3)[C@H](C)[C@@H](O)CC1=O)[C@H](C)C[C@@H]2OC` [Tacrolimus] (1000 nM) has a normalised response [1] of 95.1%, a normalised response [2] of 100% and a normalised response [3] of 96.6%. The normalised response [4] was 97.4%, the normalised response [5] was 101% and the normalised response [6] was 109%. For the same compound, the normalised response [7] was 102%, the normalised response [8] was 101% and the normalised response [9] was 108%. The normalised response [10] was 101%, the normalised response [11] was 99.7% and the normalised response [12] was 96%.

For `S=c1[nH]cnc2nc[nH]c12` [Mercaptopurine] (1000 nM), the normalised response [1] was 92.6%, the normalised response [2] was 79.7% and the normalised response [3] was 85%. The normalised response [4] was 75.6%, the normalised response [5] was 93.7% and the normalised response [6] was 108%. For the same compound, the normalised response [7] was 103%, the normalised response [8] was 59.4% and the normalised response [9] was 98.6%. The normalised response [10] was 88.8%, the normalised response [11] was 88.7% and the normalised response [12] was 71.8%.

Work on `Nc1nc(Cl)nc2c1ncn2[C@H]1C[C@H](O)[C@@H](CO)O1` [Cladribine] (100 nM) yielded a normalised response [1] of 104%, a normalised response [2] of 101% and a normalised response [3] of 97.8%. For the same compound, the normalised response [4] was 97.1%, the normalised response [5] was 101% and the normalised response [6] was 90.1%. The normalised response [7] was 77.7%, the normalised response [8] was 90.3% and the normalised response [9] was 106%. It also gave a normalised response [10] of 94.5%, a normalised response [11] of 104% and a normalised response [12] of 100%.
